# Laboratory results as given in PMC6688997 (Nature Communications, 2019).
# Values joined by “and” are separate entries in the source; they are usually repeats but may differ in a detail not shown here. Equal entries are not always repeated. Where two headings read alike, the source gives them in different places.
# Tests used:
# [1] = tested on: HCC78xe3-SLC34A2-ROS1-WT xenograft; type: in vivo, mouse; parameters: Tumor volume LWW/2: unit not given here
# [2] = Body weight of Ba/F3-CD74-ROS1-WT xenograft mice; type: in vivo, mouse; details: Crizotinib 100 mg/kg po; for Body Weight Change(%) (average / SD): N 6
# [3] = tested on: phospho-ROS1 in JFCR-165 cells; experiment: Immunoblot of ROS1 autophosphorylation; type: cell-based, human; details: 6 h
# Procedure: (§1) Lysates were prepared using 1x SDS lysis buffer (1% SDS and 10% glycerol in 100 mM Tris–HCl [pH 7.5])[27]. […] All the primary antibody was used 1:1000 dilution for immunoblot analysis.
# [4] = tested on: phospho-ROS1 in JFCR-168 cells; experiment: Immunoblot of ROS1 autophosphorylation; type: cell-based, human; details: 6 h
# Procedure: as §1
# [5] = tested on: phospho-ROS1 in MGH193-1B cells; experiment: Immunoblot of ROS1 autophosphorylation; type: cell-based, human; details: 6 h
# Procedure: as §1
# [6] = Crizotinib 100 mg/kg po; for Body Weight Change(%) (average / SD): N 6
# [7] = tested on: Ba/F3-CD74-ROS1 L2026M cells; experiment: CellTiter-Glo cell viability assay; type: cell-based, murine; details: Mus musculus
# [8] = tested on: parental Ba/F3 cells (with IL-3); experiment: CellTiter-Glo cell viability assay; type: cell-based, murine; details: Mus musculus
# [9] = tested on: Ba/F3-CD74-ROS1-WT xenograft; type: in vivo, mouse; details: for Tumor volume (average / SE): ROS1-WT xenograft, 100 mg/kg po
# [10] = tested on: Ba/F3-CD74-ROS1 L1951R cells; experiment: CellTiter-Glo cell viability assay; type: cell-based, murine; details: Mus musculus
# [11] = tested on: HCC78xe3-SLC34A2-ROS1-G2032R xenograft; type: in vivo, mouse
# [12] = tested on: Ba/F3-TPM3-NTRK1 cells (WT); experiment: CellTiter-Glo cell viability assay; type: cell-based, murine; details: Mus musculus, 72 h
# [13] = tested on: Ba/F3-CD74-ROS1 cells (WT); experiment: CellTiter-Glo cell viability assay; type: cell-based, murine; details: Mus musculus
# [14] = tested on: ROS1-rearranged NSCLC patients; details: cited from earlier work
# [15] = tested on: Ba/F3-CD74-ROS1 G2032R cells; experiment: CellTiter-Glo cell viability assay; type: cell-based, murine; details: Mus musculus
# [16] = tested on: SLC34A2-ROS1-G2032R overexpressing HCC78xe3 cells; experiment: Cell viability in 3D culture, CellTiter-Glo; type: cell-based; details: 72 h
# [17] = tested on: phospho-ROS1 in HCC78xe3-SLC34A2-ROS1-G2032R xenograft tumors; experiment: Immunoblot of xenograft tumors; type: in vivo, mouse; details: 3 days treatment
# [18] = tested on: Ba/F3-CD74-ROS1 D2033N cells; experiment: CellTiter-Glo cell viability assay; type: cell-based, murine; details: Mus musculus
# [19] = Crizotinib 100mg/kg, day 0, single mouse, in mm³
# [20] = Crizotinib 100mg/kg, day 3, single mouse, in mm³
# [21] = Crizotinib 100mg/kg, day 6, single mouse, in mm³
# [22] = Crizotinib 100mg/kg, day 9, single mouse, in mm³
# [23] = Crizotinib 100mg/kg, day 14, single mouse, in mm³
# [24] = Crizotinib 100mg/kg, day 17, single mouse, in mm³
# [25] = Crizotinib 100mg/kg, day 25, single mouse, in mm³
# [26] = Crizotinib 100mg/kg, day 28, single mouse, in mm³
# [27] = Crizotinib 100mg/kg, day 35, single mouse, in mm³
# [28] = Crizotinib 100mg/kg, day 38, single mouse, in mm³
# [29] = Crizotinib 100mg/kg, day 43, single mouse, in mm³
# [30] = Crizotinib 100mg/kg, day 48, single mouse, in mm³
# [31] = Crizotinib 100mg/kg, day 52, single mouse, in mm³
# [32] = Crizotinib 100mg/kg, day 55, single mouse, in mm³
smiles,measurement,setting,value
"C[C@@H](Oc1cc(-c2cnn(C3CCNCC3)c2)cnc1N)c1c(Cl)ccc(F)c1Cl [crizotinib, reference compound]",Tumor volume LWW/2,[1]; [19],172.7 and 167.7
same,Tumor volume LWW/2,[1]; [20],103.2 and 100.2
same,Tumor volume LWW/2,[1]; [21],67.8 and 77.3
same,Tumor volume LWW/2,[1]; [22],39.9
same,Tumor volume LWW/2,[1]; [23],13.2
same,Tumor volume LWW/2,[1]; [24],18.9 and 19.3
same,Tumor volume LWW/2,[1]; [25],5.2
same,Tumor volume LWW/2,[1]; [26],6.5
same,Tumor volume LWW/2,[1]; [27],8.7
same,Tumor volume LWW/2,[1]; [28],5.4
same,Tumor volume LWW/2,[1]; [29],4.9
same,Tumor volume LWW/2,[1]; [30],7.2
same,Tumor volume LWW/2,[1]; [31],15.8
same,Tumor volume LWW/2,[1]; [32],16.3
same,Tumor volume LWW/2,"[1]; HCC78_Xe3_WT xenograft, BALB/c-nu mice, Crizotinib 50mg/kg, day 25, individual mice No. 7-12",44.9 and 36.7 and 19.6
same,Tumor volume LWW/2,"[1]; HCC78_Xe3_WT xenograft, BALB/c-nu mice, Crizotinib 50mg/kg, day 43, individual mice No. 7-12",75.9 and 129.8 and 100.2
same,Body Weight Change(%) (average / SD),"[2]; day 0, average",0.0%
same,Body Weight Change(%) (individual),"[2]; day 0, individual animals",0%
same,Body Weight Change(%) (average / SD),"[2]; day 1, average",-2.0%
same,Body Weight Change(%) (individual),"[2]; day 1, individual animals",-1% and -1.4% and -4.2% and -2.7% and -0.5% and -2.3%
same,Body Weight Change(%) (average / SD),"[2]; day 2, average",-1.9%
same,Body Weight Change(%) (individual),"[2]; day 2, individual animals",-1.9% and -0.5% and -3.3% and -1.8%
same,Body Weight Change(%) (average / SD),"[2]; day 3, average",-1.7%
same,Body Weight Change(%) (individual),"[2]; day 3, individual animals",-2.4% and -1.4% and -4.2% and 2.3% and -2.8%
same,Body Weight Change(%) (average / SD),"[2]; day 4, average",-4.4%
same,Body Weight Change(%) (individual),"[2]; day 4, individual animals",-3.9% and -3.8% and -6.5% and -2.3% and -5.3% and -4.6%
same,Inhibition of autophosphorylation of ROS1,[3],potently inhibited
same,Inhibition of autophosphorylation of ROS1,[4],potently inhibited
same,Inhibition of autophosphorylation of ROS1,[5],potently inhibited
same,Body Weight Change(%) (average / SD),"[6]; day 0, average",0.0%
same,Body Weight Change(%) (individual),"[6]; day 0, individual animals",0%
same,Body Weight Change(%) (average / SD),"[6]; day 1, average",-1.6%
same,Body Weight Change(%) (average / SD),"[6]; day 2, average",-0.4%
same,Body Weight Change(%) (average / SD),"[6]; day 3, average",-0.3%
same,Body Weight Change(%) (average / SD),"[6]; day 4, average",0.5%
same,IC50,"[8]; BaF3, 72 h",812 nM
same,GI50,"[8]; BaF3, source data sheet",798 nM
same,Tumor shrinkage,"[9]; 100 mg/kg once daily oral, 4 days",induced tumor shrinkage
same,Tumor volume (average / SE),"[9]; day 0, N 6",289 mm3
same,Tumor volume (average / SE),"[9]; day 2, N 6",151 mm3
same,Tumor volume (average / SE),"[9]; day 4, N 6",44 mm3
same,Tumor growth inhibition,[11]; 50 and 100 mg/kg once daily oral,highly resistant to crizotinib
same,Tumor volume LWW/2,[11]; [19],154.5
same,Tumor volume LWW/2,[11]; [20],162.2 and 132.5
same,Tumor volume LWW/2,[11]; [21],164.7 and 110.8
same,Tumor volume LWW/2,[11]; [22],136.2 and 132.2
same,Tumor volume LWW/2,[11]; [23],155.8 and 119.8
same,Tumor volume LWW/2,[11]; [24],174.0 and 154.2
same,Tumor volume LWW/2,"[11]; Crizotinib 100mg/kg, day 21, single mouse, in mm³",274.9 and 242.5
same,Tumor volume LWW/2,[11]; [25],238.7 and 300.2
same,Tumor volume LWW/2,[11]; [26],247.6 and 347.9
same,Tumor volume LWW/2,"[11]; Crizotinib 100mg/kg, day 31, single mouse, in mm³",309.9 and 336.1
same,Tumor volume LWW/2,[11]; [27],418.2 and 509.9
same,Tumor volume LWW/2,[11]; [28],526.9 and 595.5
same,Tumor volume LWW/2,[11]; [29],740.1 and 596.0
same,Tumor volume LWW/2,[11]; [30],745.2 and 699.2
same,Tumor volume LWW/2,[11]; [31],846.3 and 852.5
same,Tumor volume LWW/2,[11]; [32],921.5 and 834.7
same,Tumor volume LWW/2,"[11]; HCC78_Xe3_G2032R xenograft, BALB/c-nu mice, Crizotinib 50mg/kg, day 6, individual mice No. 7-12",127.8 and 126.6
same,Tumor volume LWW/2,"[11]; HCC78_Xe3_G2032R xenograft, BALB/c-nu mice, Crizotinib 50mg/kg, day 17, individual mice No. 7-12",278.8 and 148.6 and 98.2
same,Survival,"[11]; Kaplan–Meier, 50 and 100 mg/kg",did not show any superiority to the control group
same,IC50,[12],21.4 nM
same,Median progression-free survival,[14],19.2 months
same,Overall response rate,[14],72%
same,Cell growth inhibition,[16],much higher than those to WT cells
same,Inhibition of phospho-ROS1 in tumors,[17],in SLC34A2-ROS1-WT-expressing HCC78xe3 cells only
